Experiments:
[1] = test system: rats of adenine induced kidney injury model; experiment: Adenine-induced kidney injury; format: in vivo, SD rats; conditions: 15 mg/kg, 21 days; FIG. 12
HGPS-MSC = experiment: Senescence of HGPS patient derived mesenchymal stem cells; format: cell-based, human; conditions: 10 μM
Method: Mesenchymal stem cells HGPS-MSC differentiated from pluripotent stem cells (iPSC) of patients with Hutchinson-Gilford Progeria Syndrome (HGPS) were taken for culture, and the experiment was divided into three groups, namely, young cells cultured for 7 generations, labeled as Con-Y; senescent cells cultured for 12 generations, labeled as Con-O; and the administration group to which 10 μM of TJ01-013 was added during the process of culture, similarly cultured up to the 12th generation, labeled as Con-O+TJ01-013; the drug administration group to which 10 μM positive drug Ionafarnib was added during the process of culture, similarly cultured up to the 12th generation, and labeled as Con-O+ Ionafarnib; after the end of the treatment, all the cells were placed under the microscope to observe the morphology of the cells, and the proportion of SA-β-gal+ cells was counted. The levels of DNA damage marker γ-H2AX and heterochromatin modification H3K9me3 after TJ01-013 treatment and Ionafarnib treatment were detected by immunofluorescence technique (the specific procedure was described previously).

MRL/lpr mice = experiment: Lupus nephritis in MRL/lpr mice; format: in vivo
Method: The 10-week-old female MRL/lpr mice were fed in an SPF environment with a light-dark cycle of 12 h and the temperature maintained at 24-26° C. The mice were randomly divided into three groups according to their body weights, namely, the model group (Control, n=8, 0.5% CMC-Na by oral gavage), TJ01-013 10 mg/kg treatment group (10 mg/kg, n=8, 10 mg/kg TJ01-013 by oral gavage), TJ01-013 30 mg/kg treatment group (30 mg/kg, n=8, 30 mg/kg TJ01-013 by oral gavage), the animals were adaptively fed for one week, and were administered every day starting from 11th week, and the animals were monitored for the concentration of randomized urinary proteins and urinary creatinine of the mice in each group every 2 weeks starting from week 11, the mouse urine protein to creatinine concentration ratio (uPCR) was calculated. The animals were administered for a total of 10 weeks, and blood was collected from the orbits at the end of administration and serum was collected. Serum creatinine, urea nitrogen, serum ANA and anti-dsDNA concentrations were detected.
Urine protein and urinary creatinine levels were detected by utilizing Caumas Brilliant Blue staining.
Serum creatinine and urea nitrogen were detected by biochemical analyzer.
Serum ANA and anti-dsDNA levels were detected by ELISA.
Kidney tissue was placed in a homogenizer and minced into pieces thoroughly with clean scissors; 400 μl of lysate was added to the homogenizer, homogenized and then placed on ice, and the grinding was repeated several times on ice until the kidney tissue was ground as thoroughly as possible; after 30 min of lysis, the lysate was transferred to a 1.5 ml centrifuge tube with a pipette, and then centrifuged for 10 min at 12,000 rpm under the condition of 4° C., and the supernatant was taken and stored at −20° C. Inflammatory factors TNFα and IL-6 in kidney tissue proteins were detected using ELISA.

[2] = test system: Mesenchymal stem cells (MSC) differentiated from normal human pluripotent stem cells (iPSC); experiment: Senescence of normal human derived mesenchymal stem cells; format: cell-based; conditions: 10 μM
Method: Mesenchymal stem cells (MSC) differentiated from normal human pluripotent stem cells (iPSC) were taken for culture, and the experiment was divided into three groups: young cells cultured for 6 generations, labeled as Con-Y; senescent cells cultured for 16 generations, labeled as Con-O; and the administration group, to which 10 μM TJ01-013 was added during the process of culture, similarly cultured up to the 16th generation, and labeled as Con-O+TJ01-013, and after the end of the treatment, all cells were placed under the microscope to observe the morphology of the cells, and the percentage of SA-β-gal+ cells was count. The levels of the DNA damage marker γ-H2AX and the heterochromatin modification H3K9me3 after TJ01-013 treatment were detected by immunofluorescence technique (procedure described previously).

O=C(O)C[S+]([O-])c1cc(NS(=O)(=O)c2ccc(Br)cc2)c2ccccc2c1O (centres unmarked) [I-1]
IL-1β level in kidney tissues [1]: tendency to be decreased | percentage of SA-β-gal+ cells (HGPS-MSC; 12th generation, vs Con-O, FIG. 54): significantly decreased | level of DNA damage marker γ-H2AX (HGPS-MSC; FIG. 55): significantly reduced | expression level of heterochromatin-modified H3K9me3 (HGPS-MSC; FIG. 56): restored its expression level to some extent | urine protein to creatinine concentration ratio (uPCR) (MRL/lpr mice; 10 weeks of administration, 10 and 30 mg/kg groups, FIG. 74): significantly lower | serum creatinine level (MRL/lpr mice; vs model group, FIG. 75): significantly decreased | serum urea nitrogen level (MRL/lpr mice; vs model group, FIG. 75): significantly decreased | serum ANA level (MRL/lpr mice; vs model group, FIG. 76): significantly decreased | serum dsDNA level (MRL/lpr mice; vs model group, FIG. 77): significantly decreased | IL-6 level in kidney tissues (MRL/lpr mice; vs model group, FIG. 78): significantly reduced | TNFα level in kidney tissues (MRL/lpr mice; vs model group, FIG. 78): significantly reduced | percentage of SA-β-gal-positive cells ([2]; 16th generation, vs Con-O, FIG. 51): significantly decreased | level of DNA damage marker γ-H2AX ([2]; FIG. 52): significantly reduced | expression level of heterochromatin-modified H3K9me3 ([2]; FIG. 53): restored its expression level to some extent
